Experimental data taken from patent EP1435231B1, “Non-pegylated long-circulating liposomes” (Bharat Serums & Vaccines Ltd., priority 2002, dated 2004).

What was measured:
[1] = test system: drug resistant (Pgp+) DLD-1 human colon tumour; assay: Efficacy in nude athymic mice implanted with multidrug resistant, Pgp positive DLD-1 tumour xenografts; details: mouse, in vivo
Description: Animals, nude athymic mice, 4 mice/group (10 in Control group) implanted subcutaneously with human DLD-1 colon tumour via trocar implant.
All agents were administered to nude athymic mice i.v. via tail vein on day 5 and 12 after s.c. tumour implant with the multidrug resistant, Pgp positive, human colon tumour xenograft.

[2] = Pharmacokinetic study of doxorubicin formulations in mice (plasma, HPLC); design: species or system Swiss albino mice; details: mouse, in vivo, 10 mg/kg
Description: Blood samples after collection were centrifuged at 4000 rpm for 20 min and the plasma was separated and frozen at -20°C until analysed. The frozen plasma was thawed and used for analysis.
1ml of acetonitrile was added to 100 µL of plasma, vortexed for 10 min, centrifuged at 3250 rpm for 10 min. The supernatant was withdrawn and 0.5ml of saturated ZnSO4 solution was added to it. The resulting solution was vortexed for 5 min and then centrifuged for 10 min at 3250 rpm. The upper organic layer was then withdrawn and dried under oxygen free nitrogen gas at 60°C. The residue obtained was then reconstituted with 200µL of Solvent A containing ZnSO4. 100 µL of this solution was then injected in the HPLC column.
Student's t-test was used for comparison between the three formulations.

Dogs = assay: Subacute toxicity in dogs; details: dog, in vivo
Source text: • clinical signs of toxicity, • body weight, • haemodynamic parameters, • haematology and • biochemical parameters TABLE 7

Adriamycin^®
MTD relative to that of the liposomal formulations [1]: about half
Cl [2]: 200.96 mL/h
Kel [2]: 4.852
Liver Function Test: aspartate aminotranferase, alanine aminotranferase and total bilirubin levels (Dogs): Increase
creatinine phosphokinase and lactate dehydrogenase levels (Dogs): Increase
Body weight (Dogs; 1 mg/kg): decrease in the bodyweight
Haemodynamic Parameters: Heart rate (Dogs; 1 mg/kg): Increases by average + 29.17%
Haemodynamic Parameters: Respiratory rate (Dogs; 1 mg/kg): Decreases by average -42.12%
